In the NIST ThermoML archive (doi:10.1021/je800110r):

Details: 293.15 K, Liquid, Vibrating tube method

CCCCCCCCCC [decane]
Details | mass density [kg/m3]
22074 kPa | 745.5
22091 kPa | 745.6
22110 kPa | 745.5
22128 kPa | 745.6
22143 kPa | 745.7
22164 kPa | 745.5
22179 kPa | 745.6
22199 kPa | 745.6
22217 kPa | 745.7
22235 kPa | 745.7
22253 kPa | 745.5
22275 kPa | 745.8
22300 kPa | 745.7
22318 kPa | 745.7
22336 kPa | 745.7
22358 kPa | 745.8
22373 kPa | 745.8
22397 kPa | 745.8
22412 kPa | 745.8
22434 kPa | 745.7
22452 kPa | 745.7
22473 kPa | 745.8
22498 kPa | 745.9
22523 kPa | 745.9
22542 kPa | 745.8
22564 kPa | 746
22583 kPa | 745.9
22605 kPa | 745.9
22624 kPa | 745.9
22648 kPa | 745.8
22667 kPa | 745.9
22689 kPa | 746
22711 kPa | 745.9
22727 kPa | 746
22746 kPa | 746
22771 kPa | 746
22787 kPa | 746
22807 kPa | 746
22830 kPa | 746.1
22852 kPa | 746.1
22866 kPa | 746
22882 kPa | 746.2
22899 kPa | 746.2
22915 kPa | 746.2
22934 kPa | 746.2
22948 kPa | 746.2
22970 kPa | 746.2
22994 kPa | 746.1
23011 kPa | 746.2
23030 kPa | 746.2
23047 kPa | 746.1
23069 kPa | 746.1
23086 kPa | 746.1
23108 kPa | 746.2
23127 kPa | 746.3
23144 kPa | 746.2
23167 kPa | 746.2
23186 kPa | 746.2
23206 kPa | 746.4
23223 kPa | 746.3
23246 kPa | 746.3
23265 kPa | 746.4
23285 kPa | 746.4
23308 kPa | 746.2
23328 kPa | 746.4
23345 kPa | 746.3
23362 kPa | 746.3
23382 kPa | 746.3
23402 kPa | 746.3
23416 kPa | 746.3
23434 kPa | 746.3
23454 kPa | 746.4
23472 kPa | 746.4
23489 kPa | 746.5
23509 kPa | 746.5
23529 kPa | 746.5
23547 kPa | 746.5
23565 kPa | 746.5
23582 kPa | 746.5
23605 kPa | 746.6
23632 kPa | 746.7
23647 kPa | 746.6
23668 kPa | 746.5
23687 kPa | 746.7
23704 kPa | 746.6
23728 kPa | 746.7
23755 kPa | 746.6
23773 kPa | 746.6
23790 kPa | 746.7
23811 kPa | 746.7
23826 kPa | 746.6
23847 kPa | 746.7
23875 kPa | 746.7
23896 kPa | 746.8
23917 kPa | 746.8
23940 kPa | 746.7
23964 kPa | 746.9
23985 kPa | 746.9
24004 kPa | 746.7
24022 kPa | 747
24046 kPa | 746.8
24065 kPa | 746.8
24089 kPa | 746.8
24108 kPa | 746.9
24126 kPa | 746.9
24148 kPa | 746.9
24170 kPa | 746.9
24194 kPa | 746.9
24219 kPa | 747
24237 kPa | 747
24256 kPa | 746.9
24284 kPa | 747
24309 kPa | 747
24334 kPa | 747
24356 kPa | 747.1
24374 kPa | 747
24393 kPa | 747
24416 kPa | 747
24435 kPa | 747.1
24454 kPa | 747.1
24479 kPa | 747.1
24498 kPa | 747.1
24526 kPa | 747.1
24545 kPa | 747.1
24574 kPa | 747.2
24590 kPa | 747.2
24613 kPa | 747.1
24632 kPa | 747.2
24655 kPa | 747.3
24678 kPa | 747.2
24700 kPa | 747.2
24720 kPa | 747.2
24739 kPa | 747.2
24759 kPa | 747.4
24779 kPa | 747.4
24808 kPa | 747.3
